Measurements published in US20240209028A1, “CNP COMPOUNDS” (priority 2022, published 2024).
Starred links: 1 amine or outer side, 2 acyl side, 3 side chain; linkers in the order of their positions; H or OH if unused. Positions of bridges follow the written chain, without caps; N, C: chain ends. Residues, ends and D or L forms follow the SMILES beside them. *: point of attachment. C18 diacid = O=C(O)CCCCCCCCCCCCCCCCC(=O)*; γGlu = O=C(O)[C@H](CCC(=O)[*:2])N[*:1]; AEEA = NCCOCCOCC(=O)O

Target: T1, human natriuretic peptide receptor 2 (hNPR2) (Homo sapiens, UniProt P20594)
T1 construct: expressed in transfected cells; host or cells: HEK293 (ATCC CRL-1573), clone 35, co-transfected with pGloSensor-42F
T1 sequence (P20594 23-1047): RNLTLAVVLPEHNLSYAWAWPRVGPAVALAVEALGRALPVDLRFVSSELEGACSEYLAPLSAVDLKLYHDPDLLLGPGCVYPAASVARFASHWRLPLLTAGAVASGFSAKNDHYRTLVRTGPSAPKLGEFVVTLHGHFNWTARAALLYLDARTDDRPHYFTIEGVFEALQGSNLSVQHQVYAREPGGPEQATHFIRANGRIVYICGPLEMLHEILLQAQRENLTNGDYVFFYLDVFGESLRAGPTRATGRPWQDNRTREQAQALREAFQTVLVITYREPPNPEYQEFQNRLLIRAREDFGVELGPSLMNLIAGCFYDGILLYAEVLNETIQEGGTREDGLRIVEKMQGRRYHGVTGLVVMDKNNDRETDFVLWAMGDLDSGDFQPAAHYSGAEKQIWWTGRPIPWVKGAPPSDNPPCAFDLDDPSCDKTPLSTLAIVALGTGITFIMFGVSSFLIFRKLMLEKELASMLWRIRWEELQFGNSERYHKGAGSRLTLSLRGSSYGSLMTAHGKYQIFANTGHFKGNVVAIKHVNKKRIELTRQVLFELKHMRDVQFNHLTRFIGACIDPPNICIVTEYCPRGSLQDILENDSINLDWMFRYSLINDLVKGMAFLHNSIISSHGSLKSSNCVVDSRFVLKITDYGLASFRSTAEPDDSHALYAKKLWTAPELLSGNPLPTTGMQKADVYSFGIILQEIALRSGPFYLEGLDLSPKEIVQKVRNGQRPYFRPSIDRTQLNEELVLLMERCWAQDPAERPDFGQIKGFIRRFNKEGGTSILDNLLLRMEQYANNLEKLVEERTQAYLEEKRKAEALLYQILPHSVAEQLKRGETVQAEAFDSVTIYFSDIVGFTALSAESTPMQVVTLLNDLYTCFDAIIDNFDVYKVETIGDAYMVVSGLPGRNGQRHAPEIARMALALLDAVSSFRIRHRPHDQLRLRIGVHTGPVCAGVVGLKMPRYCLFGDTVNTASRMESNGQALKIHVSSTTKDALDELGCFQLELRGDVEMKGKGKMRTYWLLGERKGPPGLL
Experiment: In vitro hNPR2 activity assay (cGMP GloSensor reporter, HEK293)
Type: cell-based
Conditions: for hNPR2 0% HSA. [EC50% rel CNP]: potency relative to CNP22 (0065); for EC50: 0% HSA, HEK293-hNPR2/GloSensor cells
In short: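 Potency is the EC50 from a four-parameter logistic fit, also expressed relative to the in-plate CNP22 control (×100), with at least two replicates. Compounds (ten concentrations, […], HSA-free diluent with 1% OVA, 0.01% Tween20) were incubated 30 min at 37 °C on HEK293 cells co-expressing hNPR2 and a GloSensor cGMP luciferase. Luminescence detected with Bright-Glo.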

Structure (SMILES)	hNPR2 0% HSA. [EC50% rel CNP]	EC50
CC[C@H](C)[C@@H]1NC(=O)[C@H](CCCNC(=N)N)NC(=O)[C@H](CC(=O)O)NC(=O)[C@H](CC(C)C)NC(=O)[C@@H]2CCCN2C(=O)[C@H](CC(C)C)NC(=O)CNC(=O)[C@H](Cc2ccccc2)NC(=O)[C@@H](NC(=O)CNC(=O)[C@H](CCCCN)NC(=O)[C@H](CO)NC(=O)[C@H](CC(C)C)NC(=O)CNC(=O)[C@H](CCCCN)NC(=O)[C@H](CCCCN)NC(=O)[C@H](CCC(N)=O)NC(=O)[C@H](C)NC(=O)CNC(=O)[C@H](CCCCN)NC(=O)[C@H](Cc2ccc(O)cc2)NC(=O)CNC(=O)CNC(=O)CNC(=O)CC[C@H](NC(=O)CC[C@H](NC(=O)CC[C@H](NC(=O)CC[C@H](NC(=O)CCCCCCCCCCCCCCCCC(=O)O)C(=O)O)C(=O)O)C(=O)O)C(=O)O)CSSC[C@@H](C(=O)O)NC(=O)CNC(=O)[C@H](CC(C)C)NC(=O)CNC(=O)[C@H](CO)NC(=O)[C@H](CC(C)C)NC(=O)[C@H](CO)NC(=O)CNC1=O [compound 1388] ({C18 diacid-γGlu-γGlu-γGlu-γGlu}-GGGYKGAQKKGLSKGCFGLPLDRIGSLSGLGC-OH; disulfide 16-32)	23.5%	–
CC[C@H](C)[C@@H]1NC(=O)[C@H](CCCNC(=N)N)NC(=O)[C@H](CC(=O)O)NC(=O)[C@H](CC(C)C)NC(=O)[C@@H]2CCCN2C(=O)[C@H](CC(C)C)NC(=O)CNC(=O)[C@H](Cc2ccccc2)NC(=O)[C@@H](NC(=O)CNC(=O)[C@H](CCC(N)=O)NC(=O)[C@H](CO)NC(=O)[C@H](CC(C)C)NC(=O)CNC(=O)[C@H](CCCCN)NC(=O)[C@H](CCCCN)NC(=O)[C@H](CCC(N)=O)NC(=O)[C@H](C)NC(=O)CNC(=O)[C@@H]2CCCN2C(=O)[C@H](C)NC(=O)[C@H](CCC(N)=O)NC(=O)CNC(=O)[C@@H]2CCCN2C(=O)[C@H](C)NC(=O)[C@H](CCC(N)=O)NC(=O)CNC(=O)[C@@H]2CCCN2C(=O)[C@H](C)NC(=O)[C@H](CCC(N)=O)NC(=O)CNC(=O)COCCOCCNC(=O)COCCOCCNC(=O)CC[C@H](NC(=O)CCCCCCCCCCCCCCCCC(=O)O)C(=O)O)CSSC[C@@H](C(=O)O)NC(=O)CNC(=O)[C@H](CC(C)C)NC(=O)CNC(=O)[C@H](CO)NC(=O)[C@H](CC(C)C)NC(=O)[C@H](CO)NC(=O)CNC1=O [compound 1487] ({C18 diacid-γGlu-AEEA-AEEA}-GQAPGQAPGQAPGAQKKGLSQGCFGLPLDRIGSLSGLGC-OH; disulfide 23-39)	22.0%	–
CC[C@H](C)[C@@H]1NC(=O)[C@H](CCCNC(=N)N)NC(=O)[C@H](CCC(=O)O)NC(=O)[C@H](CC(C)C)NC(=O)[C@@H]2CCCN2C(=O)[C@H](CC(C)C)NC(=O)CNC(=O)[C@H](Cc2ccccc2)NC(=O)[C@@H](NC(=O)CNC(=O)[C@H](CCC(N)=O)NC(=O)[C@H](CO)NC(=O)[C@H](CC(C)C)NC(=O)CNC(=O)[C@H](CCCCN)NC(=O)[C@H](CCCCN)NC(=O)[C@H](CCC(N)=O)NC(=O)[C@H](C)NC(=O)CNC(=O)[C@H](CCCCN)NC(=O)[C@H](Cc2ccc(O)cc2)NC(=O)COCCOCCNC(=O)COCCOCCNC(=O)COCCOCCNC(=O)COCCOCCNC(=O)CC[C@H](NC(=O)CC[C@H](NC(=O)CCCCCCCCCCCCCCCCC(=O)O)C(=O)O)C(=O)O)CSSC[C@@H](C(=O)O)NC(=O)CNC(=O)[C@H](CC(C)C)NC(=O)CNC(=O)[C@H](CO)NC(=O)[C@H](CC(C)C)NC(=O)[C@H](CO)NC(=O)CNC1=O [compound 1493] ({C18 diacid-γGlu-γGlu-AEEA-AEEA-AEEA-AEEA}-YKGAQKKGLSQGCFGLPLERIGSLSGLGC-OH; disulfide 13-29; C-terminus assumed)	11.5%	0.8 nM
CC[C@H](C)[C@@H]1NC(=O)[C@H](CCCNC(=N)N)NC(=O)[C@H](CC(=O)O)NC(=O)[C@H](CC(C)C)NC(=O)[C@H](CCCCN)NC(=O)[C@H](CC(C)C)NC(=O)CNC(=O)[C@H](Cc2ccccc2)NC(=O)[C@@H](NC(=O)CNC(=O)[C@H](CCCCN)NC(=O)[C@H](CO)NC(=O)[C@H](CC(C)C)NC(=O)CNC(=O)[C@H](CCCCN)NC(=O)[C@H](CCC(=O)O)NC(=O)[C@H](CCC(N)=O)NC(=O)[C@H](C)NC(=O)CNC(=O)[C@H](CCCCN)NC(=O)[C@H](CCC(=O)O)NC(=O)COCCOCCNC(=O)COCCOCCNC(=O)CC[C@H](NC(=O)CCCCCCCCCCCCCCCCC(=O)O)C(=O)O)CSSC[C@@H](C(=O)O)NC(=O)CNC(=O)[C@H](CC(C)C)NC(=O)CNC(=O)[C@H](CO)NC(=O)[C@H](CC(C)C)NC(=O)[C@H](CO)NC(=O)CNC1=O [compound 1229] ({C18 diacid-γGlu-AEEA-AEEA}-EKGAQEKGLSKGCFGLKLDRIGSLSGLGC-OH; disulfide 13-29)	5.3%	4.44 nM
CC[C@H](C)[C@@H]1NC(=O)[C@H](CCCNC(=N)N)NC(=O)[C@H](CC(=O)O)NC(=O)[C@H](CC(C)C)NC(=O)[C@@H]2CCCN2C(=O)[C@H](CC(C)C)NC(=O)CNC(=O)[C@H](Cc2ccccc2)NC(=O)[C@@H](NC(=O)CNC(=O)[C@H](CCC(N)=O)NC(=O)[C@H](CO)NC(=O)[C@H](CO)NC(=O)CNC(=O)[C@H](CCCCN)NC(=O)[C@H](CCCCN)NC(=O)[C@H](CCC(N)=O)NC(=O)[C@H](C)NC(=O)CNC(=O)[C@H](CCCCN)NC(=O)[C@H](Cc2ccc(O)cc2)NC(=O)[C@H](CCCCN)NC(=O)[C@H](CCCNC(=N)N)NC(=O)[C@H](C)NC(=O)[C@@H]2CCCN2C(=O)[C@H](C)NC(=O)[C@H](CCC(N)=O)NC(=O)CNC(=O)COCCOCCNC(=O)COCCOCCNC(=O)CC[C@H](NC(=O)CC[C@H](NC(=O)CC[C@H](NC(=O)CC[C@H](NC(=O)CCCCCCCCCCCCCCCCC(=O)O)C(=O)O)C(=O)O)C(=O)O)C(=O)O)CSSC[C@@H](C(=O)O)NC(=O)CNC(=O)[C@H](CC(C)C)NC(=O)CNC(=O)[C@H](CO)NC(=O)[C@H](CC(C)C)NC(=O)[C@H](CO)NC(=O)CNC1=O [compound 1459] ({C18 diacid-γGlu-γGlu-γGlu-γGlu-AEEA-AEEA}-GQAPARKYKGAQKKGSSQGCFGLPLDRIGSLSGLGC-OH; disulfide 20-36)	76.1%	–
CC[C@H](C)[C@@H]1NC(=O)[C@H](CCCNC(=N)N)NC(=O)[C@H](CC(=O)O)NC(=O)[C@H](CC(C)C)NC(=O)[C@@H]2CCCN2C(=O)[C@H](CC(C)C)NC(=O)CNC(=O)[C@H](Cc2ccccc2)NC(=O)[C@@H](NC(=O)CNC(=O)[C@H](CO)NC(=O)[C@H](CO)NC(=O)[C@@H](NC(=O)CNC(=O)[C@@H](NC(=O)[C@H](Cc2c[nH]cn2)NC(=O)[C@H](CCC(N)=O)NC(=O)[C@H](C)NC(=O)CNC(=O)[C@H](Cc2c[nH]cn2)NC(=O)[C@H](CCC(=O)O)NC(=O)[C@H](CCCCN)NC(=O)[C@H](CCCNC(=N)N)NC(=O)[C@H](C)NC(=O)COCCOCCNC(=O)COCCOCCNC(=O)CC[C@H](NC(=O)CCCCCCCCCCCCCCCCC(=O)O)C(=O)O)[C@@H](C)O)C(C)C)CSSC[C@@H](C(=O)O)NC(=O)CNC(=O)[C@H](CC(C)C)NC(=O)CNC(=O)[C@H](CO)NC(=O)[C@H](CC(C)C)NC(=O)[C@H](CO)NC(=O)CNC1=O [compound 1360] ({C18 diacid-γGlu-AEEA-AEEA}-ARKEHGAQHTGVSSGCFGLPLDRIGSLSGLGC-OH; disulfide 16-32)	15.1%	–
CC[C@H](C)[C@@H]1NC(=O)[C@H](CCCNC(=N)N)NC(=O)[C@H](CC(=O)O)NC(=O)[C@H](CC(C)C)NC(=O)[C@@H]2CCCN2C(=O)[C@H](CC(C)C)NC(=O)CNC(=O)[C@H](Cc2ccccc2)NC(=O)[C@@H](NC(=O)CNC(=O)[C@H](CCCCN)NC(=O)[C@H](CO)NC(=O)[C@H](CC(C)C)NC(=O)CNC(=O)[C@H](Cc2c[nH]cn2)NC(=O)[C@H](Cc2c[nH]cn2)NC(=O)[C@H](CCC(N)=O)NC(=O)[C@H](C)NC(=O)CNC(=O)[C@H](Cc2c[nH]cn2)NC(=O)[C@H](Cc2ccc(O)cc2)NC(=O)COCCOCCNC(=O)COCCOCCNC(=O)CC[C@H](NC(=O)CCCCCCCCCCCCCCCCC(=O)O)C(=O)O)CSSC[C@@H](C(=O)O)NC(=O)CNC(=O)[C@H](CC(C)C)NC(=O)CNC(=O)[C@H](CO)NC(=O)[C@H](CC(C)C)NC(=O)[C@H](CO)NC(=O)CNC1=O [compound 1346] ({C18 diacid-γGlu-AEEA-AEEA}-YHGAQHHGLSKGCFGLPLDRIGSLSGLGC-OH; disulfide 13-29; C-terminus assumed)	17.0%	–
